# Measured values published in US20100278733A1, “COMPOSITION FOR DIAGNOSIS OF AMYLOID-RELATED DISEASE” (priority 2007, published 2010).
# What was measured:
# [1] = In-vivo radioactivity distribution experiment using normal mice (Example 2); details: Example 2 numbering; for In-vivo radioactivity distribution: blood / In-vivo radioactivity distribution: brain / In-vivo radioactivity distribution: heart / In-vivo radioactivity distribution: intestine / In-vivo radioactivity distribution: kidney / In-vivo radioactivity distribution: liver / In-vivo radioactivity distribution: lung / In-vivo radioactivity distribution: pancreas / In-vivo radioactivity distribution: spleen / In-vivo radioactivity distribution: stomach: normal mice, intravenous
# Procedure: Radioactive iodine labeling compounds were diluted with physiological saline containing 10% EtOH. To each of four or five 5-week-old male ddY mice (20 to 25 g) per group, […] of a labeled compound, [^125I]Compound 7, 10, 13, or 14 (0.2 to 0.4 mCi), was administered from the caudal vein. Animals were decapitated at 2, 10, 30, or 60 min, blood was collected, the major organs were isolated, and then weights and radioactivities thereof were measured.
# Aβ(1-42) aggregate [2] = molecular target: T1, Aβ(1-42) aggregate (Homo sapiens, UniProt P05067); assay: Binding inhibition experiment using Aβ(1-42) aggregate, Ki values (Example 2); details: radioactive ligand [^125I]CL-NMe2; mean ± standard error of 3 experiments (compound 4: 6 experiments); compound numbers of Example 2; read-out: Ki values calculated by inhibition experiment
# T1 construct: Amyloid β protein (Human, 1-42) [TFA form] was purchased from Peptide Institute, Inc; purchased Peptide Institute, Inc
# T1 sequence (P05067 672-713 limits assumed): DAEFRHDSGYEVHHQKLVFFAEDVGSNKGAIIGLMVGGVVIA
# Procedure: As a radioactive iodine-125 (^125I), Iodine-125 (3.7 GBq/mL) manufactured by MP Biomedicals, Inc. was used. Reverse phase HPLC was performed at a flow rate of 1.0 mL/min using a Cosmosil 5C18-AR-II column (4.6×150 mm) manufactured by Nacalai Tesque Inc. and ultrapure water:acetonitrile=3:7 as an elution solvent. ^1HNMR was measured using Varian Gemini 300 and tetramethylsilane as an internal standard substance. Mass spectrometry was performed using JEOL IMS-DX300. Preparative TLC was performed using 12 PLC plates 20×20-cm-Silica gel 60 F254, 2 mm manufactured by MERCK. Amyloid β protein (Human, 1-42) was purchased from Peptide Institute, Inc., and special grade reagents were used as other reagents.
# (§1) Aβ(1-42) was dissolved in 10 mM phosphate buffer containing 1 mM EDTA (pH 7.4) at a concentration of 0.25 mg/mL, and the mixture was incubated at 37° C. for 42 h to prepare an Aβ(1-42) aggregate.
# […] of 10% EtOH solution, […] of a solution of [^125I]4-diethylamino-4′-iodochalcone ([^125I]CL-NMe2) in 10% ethanol, and […] of a sample solution at various concentrations (0 to 20 mM) were mixed, […] of an Aβ(1-42) aggregate solution was finally added, and the mixture was allowed to stand at room temperature for 3 h. Aβ(1-42) aggregate-bound compounds and nonbound compounds were separated with a Brandel M-24R cell harvester using a Whatman GF/B filter. Radioactivities remaining on the filter after filtration were measured with a γ-counter, and inhibition curves were created using Graph Pad Prism 4.0 to calculate inhibition constants (Ki values).
# [3] = tested on: senile plaque amyloid and vascular amyloid; assay: Fluorescence staining experiment using brain tissue sections of Alzheimer's disease model mice; type: binding, APP/PS1 double transgenic mouse; details: in words; 100 μM in 50% aqueous ethanol, fluorescence microscope, FIG. 11
# Procedure: As an Alzheimer's disease model mouse, APP/PS1 double transgenic mouse was used. The brain was removed, immobilized with 10% formaldehyde, dehydrated with alcohol and xylene, and then paraffin-embedded. The paraffin-embedded brain tissue was cut into a 5-μm section, and the section was treated with xylene, alcohol, and water and deparaffinized. The section was incubated in PBS for 30 min and then in solutions of various chalcone derivatives (100 μM) in 50% aqueous ethanol for 10 min. The section was washed with 50% ethanol and PBS and then examined with a fluorescence microscope (Leica TCS SP2).
# Aβ(1-42) aggregate [4] = molecular target: T1, Aβ(1-42) aggregate; assay: Examination of binding site by binding inhibition experiment using Aβ(1-42) aggregate (Example 2); details: FIG. 10, compound numbers of Example 2, read-out: Ki for inhibition of binding of [^125I]CL-NMe2 to the Aβ(1-42) aggregate
# Procedure: as §1
# […] of 10% EtOH solution, […] of [^125I]CL-NMe2 solution, […] of a solution of congo red, thioflavine T, or compound 14 at various concentrations (0 to 20 mM) were mixed, […] of an Aβ(1-42) aggregate solution was finally added, and the mixture was allowed to stand at room temperature for 3 h. Aβ(1-42) aggregate-bound compounds and nonbound compounds were separated with a Brandel M-24R cell harvester using a Whatman GF/B filter. Radioactivities remaining on the filter after filtration were measured with a γ-counter, and inhibition curves were created using Graph Pad Prism 4.0 to calculate inhibition constants.
# Aβ(1-40) aggregate = molecular target: T2, Aβ(1-40) aggregate (Homo sapiens, UniProt P05067); assay: In-vitro binding experiment of chalcone derivatives using Aβ aggregate (Reference Example 1); details: in words; radioactivity on filter in presence vs absence of Aβ aggregate, FIG. 14; compound numbers of Reference Example 1
# T2 construct: Amyloid β protein (Human, 1-40) [HCl form]; purchased Peptide Institute, Inc
# T2 sequence (P05067 672-711 limits assumed): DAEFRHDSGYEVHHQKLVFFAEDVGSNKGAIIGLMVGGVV
# Procedure: As a radioactive iodine-125 (^125I), IODINE-125 (74 MBq) manufactured by Amersham Biosciences was used. Reverse phase HPLC was performed at a flow rate of 1.0 mL/min using Cosmosil 5C18-AR Column (4.6×150 mm) manufactured by Nacalai Tesque Inc. and ultrapure water (A) and acetonitrile (B) (A:B=40:60) as an elution solvent. ^1H-NMR was measured using Varian Gemini 300 and tetramethylsilane as an internal standard substance. Mass spectrometry was performed using JEOL IMS-DX300. Amyloid β protein (Human, 1-40) [HCl form] and Amyloid β protein (Human, 1-42) [TFA form] were purchased from Peptide Institute, Inc., and special grade reagents were used as other reagents.
# The Aβ aggregate was dissolved in a buffer containing 10 mM sodium phosphate and 1 mM EDTA (pH 7.4) at a concentration of 0.5 mg/mL, and the mixture was incubated at 37° C. for 36 to 42 h. The binding experiment was performed using 12×75 mm borosilicate glass tubes. 900 μL of 10% ethanol solution, 50 μL (57 nM) of an Aβ(1-40) aggregate solution, and 50 μL of [^125I]Compound 7 or 12 having various concentrations were mixed, and the mixture was allowed to stand at room temperature for 3 h. […] The radioactivities of substances remaining in the filter used for filtration were measured with a γ counter.
structure (smiles),measurement,setting,value
"CN(C)c1ccc(C=CC(=O)c2ccc(I)s2)cc1 [Compound 14 in Example 2, 1-(5-iodo-2-thienyl)-3-(4-dimethylaminophenyl)-prop-2-en-1-one]",stability in the organism,"[1]; in words: radioactivity accumulation in the stomach, retention in blood, deiodination",instability in the organism
same,In-vivo radioactivity distribution: blood,[1]; 2 min,4.91 (0.71) percent of the dose/g
same,In-vivo radioactivity distribution: brain,[1]; 2 min,2.40 (0.30) percent of the dose/g
same,In-vivo radioactivity distribution: heart,[1]; 2 min,5.05 (0.95) percent of the dose/g
same,In-vivo radioactivity distribution: intestine,[1]; 2 min,1.73 (0.21) percent of the dose/g
same,In-vivo radioactivity distribution: kidney,[1]; 2 min,7.41 (1.54) percent of the dose/g
same,In-vivo radioactivity distribution: liver,[1]; 2 min,9.57 (2.00) percent of the dose/g
same,In-vivo radioactivity distribution: lung,[1]; 2 min,8.29 (0.99) percent of the dose/g
same,In-vivo radioactivity distribution: pancreas,[1]; 2 min,3.82 (0.57) percent of the dose/g
same,In-vivo radioactivity distribution: spleen,[1]; 2 min,4.05 (0.63) percent of the dose/g
same,In-vivo radioactivity distribution: stomach,[1]; 2 min,1.21(0.27) percent of the dose
same,In-vivo radioactivity distribution: blood,[1]; 10 min,3.58 (0.35) percent of the dose/g
same,In-vivo radioactivity distribution: brain,[1]; 10 min,0.75 (0.31) percent of the dose/g
same,In-vivo radioactivity distribution: heart,[1]; 10 min,3.02 (0.60) percent of the dose/g
same,In-vivo radioactivity distribution: intestine,[1]; 10 min,2.57 (0.53) percent of the dose/g
same,In-vivo radioactivity distribution: kidney,[1]; 10 min,4.66 (0.68) percent of the dose/g
same,In-vivo radioactivity distribution: liver,[1]; 10 min,7.10 (1.08) percent of the dose/g
same,In-vivo radioactivity distribution: lung,[1]; 10 min,5.17 (0.69) percent of the dose/g
same,In-vivo radioactivity distribution: pancreas,[1]; 10 min,1.94 (0.80) percent of the dose/g
same,In-vivo radioactivity distribution: spleen,[1]; 10 min,5.48 (1.02) percent of the dose/g
same,In-vivo radioactivity distribution: stomach,[1]; 10 min,5.29 (1.24) percent of the dose
same,In-vivo radioactivity distribution: blood,[1]; 30 min,2.92 (0.60) percent of the dose/g
same,In-vivo radioactivity distribution: brain,[1]; 30 min,0.31 (0.04) percent of the dose/g
same,In-vivo radioactivity distribution: heart,[1]; 30 min,1.48 (0.78) percent of the dose/g
same,In-vivo radioactivity distribution: intestine,[1]; 30 min,4.05 (0.99) percent of the dose/g
same,In-vivo radioactivity distribution: kidney,[1]; 30 min,4.31 (1.01) percent of the dose/g
same,In-vivo radioactivity distribution: liver,[1]; 30 min,5.95 (1.19) percent of the dose/g
same,In-vivo radioactivity distribution: lung,[1]; 30 min,3.53 (0.35) percent of the dose/g
same,In-vivo radioactivity distribution: pancreas,[1]; 30 min,1.95 (0.32) percent of the dose/g
same,In-vivo radioactivity distribution: spleen,[1]; 30 min,5.01 (1.72) percent of the dose/g
same,In-vivo radioactivity distribution: stomach,[1]; 30 min,9.81 (6.47) percent of the dose
same,In-vivo radioactivity distribution: blood,[1]; 60 min,2.63 (0.45) percent of the dose/g
same,In-vivo radioactivity distribution: brain,[1]; 60 min,0.21 (0.02) percent of the dose/g
same,In-vivo radioactivity distribution: heart,[1]; 60 min,1.65 (0.24) percent of the dose/g
same,In-vivo radioactivity distribution: intestine,[1]; 60 min,4.69 (1.64) percent of the dose/g
same,In-vivo radioactivity distribution: kidney,[1]; 60 min,2.44 (0.35) percent of the dose/g
same,In-vivo radioactivity distribution: liver,[1]; 60 min,4.96 (1.27) percent of the dose/g
same,In-vivo radioactivity distribution: lung,[1]; 60 min,2.87 (0.46) percent of the dose/g
same,In-vivo radioactivity distribution: pancreas,[1]; 60 min,1.86 (0.27) percent of the dose/g
same,In-vivo radioactivity distribution: spleen,[1]; 60 min,3.03 (0.31) percent of the dose/g
same,In-vivo radioactivity distribution: stomach,[1]; 60 min,8.73 (4.21) percent of the dose
same,Ki,Aβ(1-42) aggregate [2],3.9 ± 0.4 nM
same,binding property to senile plaque amyloid and vascular amyloid on brain tissue sections,[3],stronger than that of fluorine-containing chalcone derivatives
same,Ki,Aβ(1-42) aggregate [4],4 nM
CN(C)c1ccc(/C=C/C(=O)c2ccc(I)cc2)cc1 [Compound 12 in Reference Example 1],binding property to the Aβ aggregate,Aβ(1-40) aggregate,strong binding property
